According to patent publication US20090221543A1, “NEW CORTICOSTEROIDS” (NICOX S A., priority 2002, published 2009):
Where two headings read alike, the source gives them in different places.

Assays:
glucocorticoid receptor = biological target: T1, glucocorticoid receptor (Homo sapiens, UniProt P04150); assay: GR binding assay: displacement of 3H-dexamethasone from glucocorticoid binding sites in human monocytes; conditions: 3H-dexamethasone 50 nM, 37° C., 1 hour
T1 construct: The monocytes have been isolated from human blood by a method based on a density gradient; endogenous in cells; host or cells: primary human blood monocytes (Ficoll-Hypaque isolated), intact cells
T1 sequence (P04150 1-777): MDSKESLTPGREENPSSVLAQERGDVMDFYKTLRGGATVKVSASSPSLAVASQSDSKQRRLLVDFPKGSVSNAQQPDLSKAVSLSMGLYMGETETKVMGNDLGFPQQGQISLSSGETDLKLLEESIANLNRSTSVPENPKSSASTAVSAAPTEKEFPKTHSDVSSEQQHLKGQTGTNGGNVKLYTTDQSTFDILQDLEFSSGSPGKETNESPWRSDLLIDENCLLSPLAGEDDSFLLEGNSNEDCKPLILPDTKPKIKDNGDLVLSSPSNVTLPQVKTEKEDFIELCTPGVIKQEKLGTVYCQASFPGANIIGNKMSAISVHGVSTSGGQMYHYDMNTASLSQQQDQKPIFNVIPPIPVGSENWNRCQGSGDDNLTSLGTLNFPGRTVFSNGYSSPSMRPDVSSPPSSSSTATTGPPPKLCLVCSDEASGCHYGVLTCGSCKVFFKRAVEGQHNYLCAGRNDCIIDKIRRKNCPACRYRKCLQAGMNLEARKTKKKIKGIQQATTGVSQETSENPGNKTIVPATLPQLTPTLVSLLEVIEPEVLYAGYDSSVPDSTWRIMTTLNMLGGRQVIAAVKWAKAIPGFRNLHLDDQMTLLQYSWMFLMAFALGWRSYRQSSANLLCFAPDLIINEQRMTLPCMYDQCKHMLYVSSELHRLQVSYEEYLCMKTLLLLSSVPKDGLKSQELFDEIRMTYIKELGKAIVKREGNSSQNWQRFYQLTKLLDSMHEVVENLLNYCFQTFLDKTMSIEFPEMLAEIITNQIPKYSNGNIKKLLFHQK
Experimental: In these experiments human monocytes having on their surface receptors for glucocorticoids have been used.
In this experiment the capability of the tested substances to displace ^3H-dexamethasone from the bond sites for the glucorticoids present in human monocytes has been evaluated.
The test tube content has been mixed using a Vortex equipment. The test tubes have then been incubated at 37° C. for 1 hour.
After incubation, the cells have been washed 4 times with a saline solution in phosphate buffer cooled in ice bath (PBS, 0.01 M) and the amount of [^3H]-dexamethasone bound to the cells has been determined by liquid scintigraphy. For each sample the concentration of [^3H]-dexamethasone bound to the cells (femtomoles (fmoles)/ml 10^−15 moles/ml) has been calculated by substracting from the measured values the non specific bond value, and then multiplying by the ratio molarity/radioactivity.
The data reported in the Tables are expressed in fmole [^3H]-dexamethasone/ml.

[1] = test system: bronchoconstriction caused by histamine; assay: Bronchoconstriction caused by histamine in guinea pigs (sGaw, whole body plethysmography); assay type: in vivo
Experimental: Male guinea pigs weighing between 250 and 300 g for several days before the beginning of the experiment have been accustomed to the restrained and whole-body plethysmograph. Histamine (3 mM dissolved in saline solution 0.9%) has been administered by intranasal route for 20 seconds 24 hours before and 15 minutes after the administration of the tested compounds. NO-Budesonide (635: g/ml) and Budesonide (448: g/ml) dissolved in a mixture (v/v) DMSO 20%, ethanol 10%, saline physiological solution 70%, or the carrier, have been administered to the animals as aerosols, in a sealed room, using a wright nebulizer operating by compressed air at a pressure of 21.38×10^3 Pa (20 p.s.i.) and a flow of 0.5 ml/min. The administration lasted 15 minutes.
To monitor the functionality of the animal airways the “whole body” plethysmography has been used. The animals were watchful and functionality has been determined as specific conductance of the airways (sGaw), expressed in % change of the basal value in the instant immediately after the exposure. To this purpose the animals were provided with a suitable mask and then transferred in a sealed room. The respiratory flow has been determined by a pneumotachograph and a pressure transducer.

[2] = test system: arthritis caused by collagen; assay: Anti-arthritic activity in collagen-induced arthritis in rats; assay type: in vivo, Lewis rats; conditions: 4 :moles/kg i.p.; for Hind Legs Articulations Sizes: day 12 to 18, measured on day 18, control 7.03, naive 5.9; for histological analysis of the articulations: day 18; for Leg Average Volume: plethysmometer, control 1.5, naive 1.1; for Hip Functionality Evaluation (Score): score 0 (absence of inflammation) to 3 (serious inflammation), control 1.6; for Hind Legs Articulations Reduction %: with respect to the control group treated only with collagen suspension
Experimental: Lewis female rats weighing 150-200 g fed by a standard diet and with free access to water have been stabulated with cycles of 12 hours light/dark.
To carry out the experiment, the rats were anaesthetized with halothane (day zero), then at the base of the tail, by intradermal injection, a collagen suspension II/Freund's incomplete adjuvant (400: g/rat) was injected, prepared as described hereinafter: nasal bovine collagen of type II (Sigma-Aldrich, 4 mg/ml) has been dissolved in acetic acid (0.01 M) and emulsified with a same volume of cold Freund's incomplete adjuvant (Sigma-Aldrich).
The arthritic pathology became evident between the 11th and the 13th day, with a maximum inflammation at the 18th day in untreated rats.
From the 12th to the 18th day subsequent to the injection, the rats, divided in 3 groups of 10 animals each, have been treated i.p. according to the following protocol:
A fourth group of healthy rats (naive) has been taken as a further reference.
During the treatment with the tested compounds the antiarthritic activity has been evaluated by the following parameters: • average paw volume determined by a plethysmometer; • clinical evaluation of the hip functionality by an arbitrary score from 0 (absence of inflammation) to 3 (serious inflammation, which affects both the hip articulation and the animal paw).
On the 18th day the rats were sacrificed and the diameters of the femoral articulations of the animal hind legs were determined after skin removal; and an histological analysis of the articulations was carried out.
In table 5 there are reported: • the articulation sizes expressed in mm, • the percent reduction of the articulation size calculated with respect to the control rat group treated only with the collagen suspension, • the paw average volume, expressed in ml, daily determined, • the score evaluation of the hip functionality.

[3] = test system: gastric damage caused by ischaemia-reperfusion; assay: Gastric damage caused by ischaemia-reperfusion in rats; conditions: 28 :moles/kg by os 2 hours before the ischaemia; control 3 ± 1
primary rat osteoclastes [4] = assay: Osteoclastic activity in vitro (reabsorption areas on calcium phosphate plaques); conditions: 1 nM, 18 hours at 37° C.; control 100
[5] = assay type: in vivo, Sprague Dawley rats; conditions: 5 mg/Kg/die i.p. for 3 weeks
Experimental: […]. The controls have been treated with the carrier (peanut oil 0.5 ml/rat/die i.p. for 3). At the end of the treatment the average arterial pressure (MABP) and the heart-beat have been controlled in the rats. […]. treated group 348±18, n=9).

primary rat osteoclastes [6] = conditions: 18 h, 1 nM
[7] = test system: spinal lesions from trauma; assay: Recovery of motor functions after spinal lesions from trauma in rats (BBB score); conditions: 20 mg/kg s.c. once a day for 5 days
[8] = t0 = 24 hours before the inhalation of the tested compound
[9] = t1 = 15 minutes after the inhalation of the tested compound, aerosol for 15 minutes, equimolar doses (635 / 448 :g/ml)

C[C@]12CCC(=O)C=C1CCC1C2[C@@H](O)C[C@@]2(C)C1CC[C@]2(O)C(=O)COC(=O)c1ccc(CO[N+](=O)[O-])cc1 (stereo partly drawn) [Hydr-Ar—ONO2, Hydrocortisone 21-(4′-nitrooxymethyl)benzoate]
Bound 3H Dexamethasone (glucocorticoid receptor; tested compound 0.3 :M): 17.3 fmol/mL
Bound 3H Dexamethasone (glucocorticoid receptor; tested compound 10 :M): 0 fmol/mL

CCCC1O[C@@H]2C[C@H]3[C@@H]4CCC5=CC(=O)C=C[C@]5(C)[C@H]4[C@@H](O)C[C@]3(C)[C@]2(C(=O)CO)O1 (stereo partly drawn) [Budesonide, reference compound]
specific conductance of the airways (sGaw), % change of the basal value after histamine [1, 8]: −28.7 ± 8.8%
specific conductance of the airways (sGaw), % change of the basal value after histamine [1, 9]: −42.6 ± 15.9%

C[C@]12C=CC(=O)C=C1CC[C@@H]1[C@@H]2[C@@H](O)C[C@@]2(C)[C@H]1CC[C@]2(O)C(=O)COC(=O)CN1CCN(CCCO[N+](=O)[O-])CC1.Cl.Cl [Predn-pyper-ONO2, Prednisolone-21-[2-[4-(3-nitrooxypropyl)piperazin-1-yl]acetate]bishydrochloride]
Bound 3H Dexamethasone (glucocorticoid receptor; tested compound 1 μM): 5.5 fmol/mL

C[C@]12C=CC(=O)C=C1CC[C@@H]1[C@@H]2[C@@H](O)C[C@@]2(C)[C@H]1CC[C@]2(O)C(=O)COC(=O)CN1CCN(CCCO[N+](=O)[O-])CC1.O=C(O)C(F)(F)F.O=C(O)C(F)(F)F [Predn-pyper-C3—ONO2, Prednisolone-21-[2-[4-(3-nitrooxypropyl)piperazin-1-yl]acetate]bis-trifluoromethanacetate]
Bound 3H Dexamethasone (glucocorticoid receptor; tested compound 1 μM): 2.4 fmol/mL

C[C@]12C=CC(=O)C=C1CC[C@@H]1[C@@H]2[C@@H](O)C[C@@]2(C)[C@H]1CC[C@]2(O)C(=O)CO [Prednisolone, reference compound]
Hind Legs Articulations Sizes [2]: 6.1 mm
histological analysis of the articulations [2]: cartilage ulcerations and synovial inflammation were present
Leg Average Volume [2]: 1.26 mL
Hip Functionality Evaluation (Score) [2]: 0.6 Score
Hind Legs Articulations Reduction % [2]: 12.7%
Lesion Index (LI) [3]: 44 ± 2.5
% Reabsorbed Area with Respect to Control Area (primary rat osteoclastes [4]): 148%

CCCC1O[C@@H]2CC3C4CCC5=CC(=O)C=C[C@]5(C)C4[C@@H](O)C[C@]3(C)[C@]2(C(=O)COC(=O)c2ccc(CO[N+](=O)[O-])cc2)O1 (stereo partly drawn) [Budesonide-NO, Budesonide 21-(4′-nitrooxymethyl)benzoate]
inhibition of the bronchoconstriction caused by histamine ([1]; aerosol, equimolar doses): 100%
specific conductance of the airways (sGaw), % change of the basal value after histamine [1, 8]: −29.7 ± 9.8%
specific conductance of the airways (sGaw), % change of the basal value after histamine [1, 9]: +1.4 ± 7.9%

C[C@]12CCC(=O)C=C1CC[C@@H]1[C@@H]2[C@@H](O)C[C@@]2(C)[C@H]1CC[C@]2(O)C(=O)COC(=O)CCCO[N+](=O)[O-] [Hydr-C4—ONO2, Hydrocortisone-21-(4-nitrooxybutyrate), reference compound]
Bound 3H Dexamethasone (glucocorticoid receptor; tested compound 0.3 :M): 25.6 fmol/mL
Bound 3H Dexamethasone (glucocorticoid receptor; tested compound 10 :M): 4.3 fmol/mL

C[C@@H]1CC2C3CCC4=CC(=O)C=C[C@]4(C)[C@@]3(F)[C@@H](O)C[C@]2(C)[C@@]1(O)C(=O)COC(=O)c1ccc(CO[N+](=O)[O-])cc1 (stereo partly drawn) [Dex-Ar—ONO2, Dexamethasone 21-(4′-nitrooxymethyl)benzoate]
Bound 3H Dexamethasone (glucocorticoid receptor; tested compound 0.1 μM): 1.1 fmol/mL

C[C@]12C=CC(=O)C=C1CC[C@@H]1[C@@H]2[C@@H](O)C[C@@]2(C)[C@H]1CC[C@]2(O)C(=O)COC(=O)CCCO[N+](=O)[O-] [Predn-C4—ONO2, Prednisolone 21-(4-nitrooxy)butyrate, reference compound]
Bound 3H Dexamethasone (glucocorticoid receptor; tested compound 1 μM): 9.9 fmol/mL

C[C@]12C=CC(=O)C=C1CCC1C2[C@@H](O)C[C@@]2(C)C1CC[C@]2(O)C(=O)COC(=O)c1ccc(CO[N+](=O)[O-])cc1 (stereo partly drawn) [Predn-Ar—ONO2, Prednisolone 21-(4′-nitrooxymethyl)benzoate]
Bound 3H Dexamethasone (glucocorticoid receptor; tested compound 1 μM): 0 fmol/mL
heart-beat ([5]; control 330±32): 348±18
average arterial pressure (MABP) ([5]; controls 110±4): 128±7
Hind Legs Articulations Sizes [2]: 5.7 mm
histological analysis of the articulations [2]: both the synovial inflammation and the infiltration of inflammatory cells in cartilages were minimal, without compromising the cartilages
Leg Average Volume [2]: 1.1 mL
Hip Functionality Evaluation (Score) [2]: 0.1 Score
Hind Legs Articulations Reduction % [2]: 18.6%
% Reabsorbed Area with Respect to Control Area (primary rat osteoclastes [6]): 90%
Lesion Index (LI) [3]: 7 ± 2.1
Motor Behaviour Evaluation (BBB score) ([7]; 3rd day after trauma, 0 = does not walk, 20 = normal, control 4): 8
Motor Behaviour Evaluation (BBB score) ([7]; 5th day after trauma, control 6): 14
Motor Behaviour Evaluation (BBB score) ([7]; 7th day after trauma, control 8): 17
